Key:
Rice, W.S. Jap = assay: Test F flood (paddy) test; assay type: in vivo, Oryza sativa cv. Japonica—M202; details: 21 d, scale 0-100
How it was run: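 Compounds were applied directly to paddy water held 3 cm above silt loam soil, with rice and weeds at the 2.0–2.5-leaf stage, grown in a greenhouse at 30/27° C under a 16-h photoperiod. Visual ratings (0 no effect to 100 complete control) were made against untreated controls after 21 d.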

bulrush, hardstem = assay: Test F flood (paddy) test; assay type: in vivo, Scirpus juncoides; details: 21 d, scale 0-100
Source text: Three plastic pots (ca. 16-cm diameter) per rate were partially filled with sterilized Tama silt loam soil comprising a 35:50:15 ratio of sand, silt and clay and 2.6% organic matter. Separate plantings for each of the three pots were as follows. Seeds from the U.S. of monochoria (Monochoria vaginalis), sedge, umbrella (small-flower umbrella sedge, Cyperus difformis), bulrush, […] bulrush, Scirpus juncoides), and […] (purple […] coccinea), were planted into one 16-cm pot for each rate. Seeds from the U.S. of flatsedge, rice (rice flatsedge, Cyperus iria), sprangletop, Brdd. (bearded sprangletop, Leptochloa fascicularis), one stand of 9 or 10 water seeded rice seedlings (Rice, W.S. Jap, Oryza sativa cv. 'Japonica-[…]' or Rice, W.S. Ind, 'Indica'), and two stands of 3 or 4 seedlings of rice, transplanted (transplanted rice, Oryza sativa cv. 'Japonica-[…]') were planted into one 16-cm pot for each rate. Seeds from the U.S. of barnyardgrass (Echinochloa crus-galli), […] (common […], Alisma plantago-aquatica), and watergrass, late (late watergrass, Echinochloa oryzicola) were planted into one 16-cm pot for each rate. Plantings were sequential so that crop and weed species were at the 2.0 to 2.5-leaf stage at time of treatment. […] Effects of treatments on rice and weeds were visually evaluated by comparison to untreated controls after 21 d. […]

sedge, umbrella = assay: Test F flood (paddy) test; assay type: in vivo, Cyperus difformis; details: 21 d, scale 0-100
Source text: (§1) Three plastic pots (ca. 16-cm diameter) per rate were partially filled with sterilized Tama silt loam soil comprising a 35:50:15 ratio of sand, silt and clay and 2.6% organic matter. Separate plantings for each of the three pots were as follows. Seeds from the U.S. of monochoria (Monochoria vaginalis), sedge, umbrella (small-flower umbrella sedge, Cyperus difformis), bulrush, […] bulrush, Scirpus juncoides), and […] (purple […] coccinea), were planted into one 16-cm pot for each rate. Seeds from the U.S. of flatsedge, rice (rice flatsedge, Cyperus iria), sprangletop, Brdd. (bearded sprangletop, Leptochloa fascicularis), one stand of 9 or 10 water seeded rice seedlings (Rice, W.S. Jap, Oryza sativa cv. 'Japonica-[…]' or Rice, W.S. Ind, 'Indica'), and two stands of 3 or 4 seedlings of rice, transplanted (transplanted rice, Oryza sativa cv. 'Japonica-[…]') were planted into one 16-cm pot for each rate. Seeds from the U.S. of barnyardgrass (Echinochloa crus-galli), […] (common […], Alisma plantago-aquatica), and watergrass, late (late watergrass, Echinochloa oryzicola) were planted into one 16-cm pot for each rate. Plantings were sequential so that crop and weed species were at the 2.0 to 2.5-leaf stage at time of treatment. Potted plants were grown in a greenhouse with day/night temperature settings of 30/27° C., and supplemental balanced lighting was provided to maintain a 16-h photoperiod. Test pots were maintained in the greenhouse until test completion. At time of treatment, test pots were flooded to 3 cm above the soil surface, treated by application of test compounds directly to the paddy water, and then maintained at that water depth for the duration of the test. Effects of treatments on rice and weeds were visually evaluated by comparison to untreated controls after 21 d. Plant response ratings, summarized in Table F, are based on a scale of 0 to 100 where 0 is no effect and 100 is complete control. A dash (-) response means no test result.

waterplantain = assay: Test F flood (paddy) test; assay type: in vivo, Alisma plantago-aquatica; details: 21 d, scale 0-100
Source text: as §1

cocklebur = assay: Test E preemergence herbicide test; assay type: in vivo, Xanthium strumarium; design: key: 0 = no effect, 100 = complete control
Source text: (§2) Seeds of plant species selected from corn (Zea mays), soybean (Glycine max), velvetleaf (Abutilon theophrasti), lambsquarters (Chenopodium album), wild poinsettia (Euphorbia heterophylla), pigweed, palmer (palmer pigweed, Amaranthus palmeri), waterhemp (common waterhemp, Amaranthus rudis), surinam grass (Brachiaria decumbens), crabgrass, large (large crabgrass, Digitaria sanguinalis), crabgrass, Brazil (Brazilian crabgrass, Digitaria horizontalis), panicum, fall (fall panicum, Panicum dichotomiflorum), foxtail, giant (giant foxtail, Setaria faberii), foxtail, green (green foxtail, Setaria viridis), goosegrass (Eleusine indica), johnsongrass (Sorghum halepense), ragweed (common ragweed, Ambrosia elatior), barnyardgrass (Echinochloa crus-galli), sandbur (southern sandbur, Cenchrus echinatus), arrowleaf […] rhombifolia), ryegrass, Italian (Italian ryegrass, Lolium multiflorum), dayflower, VA (Virginia dayflower, Commelina virginica), field bindweed (Convolvulus arvensis), morningglory (Ipomoea coccinea), nightshade (eastern black nightshade, Solanum ptycanthum), kochia (Kochia scoparia), nutsedge, yellow (yellow nutsedge, Cyperus esculentus), cocklebur (common cocklebur, Xanthium strumarium), smartweed (ladysthumb smartweed, Polygonum Persicaria) and beggarticks (hairy beggarticks, Bidens pilosa), were planted into a silt loam soil and treated preemergence with test chemicals formulated in a non-phytotoxic solvent mixture which included a surfactant. Treated plants and controls were maintained in a greenhouse for 21 days, after which time all species were compared to controls and visually evaluated. Plant response ratings, summarized in Table E, are based on a scale of 0 to 100 where 0 is no effect and 100 is complete control. A dash (-) response means no test result.

windgrass = assay: Test C postemergence herbicide test; assay type: in vivo, Apera spica-venti
Source text: (§3) At the same time, plants selected from these crop and weed species and also barley (winter barley, Hordeum vulgare), […]), chickweed (common chickweed, Stellaria media), deadnettle (henbit deadnettle, Lamium amplexicaule), and canarygrass (littleseed canarygrass, Phalaris minor) were planted in pots containing Redi-Earth® planting medium (Scotts Company, 14111 Scottslawn Road, Marysville, Ohio 43041) comprising spaghnum peat moss, vermiculite, wetting agent and starter nutrients and treated with postemergence applications of test chemicals formulated in the same manner. Plants ranged in height from 2 to 18 cm (1- to 4-leaf stage) for postemergence treatments. Treated plants and controls were maintained in a greenhouse for 13 to 15 days, after which time all species were compared to controls and visually evaluated. Plant response ratings, summarized in Table C, are based on a scale of 0 to 100 where 0 is no effect and 100 is complete control. A dash (-) response means no test result.

barley (winter barley) = assay: Test C postemergence herbicide test; assay type: in vivo, Hordeum vulgare
Source text: as §3

canarygrass = assay: Test C postemergence herbicide test; assay type: in vivo, Phalaris minor
Source text: as §3

Rice, W.S. Ind = assay: Test F flood (paddy) test; assay type: in vivo, Oryza sativa Indica; details: 21 d, scale 0-100
Source text: as §1

pigweed, palmer = assay: Test E preemergence herbicide test; assay type: in vivo, Amaranthus palmeri; design: key: 0 = no effect, 100 = complete control
Source text: as §2

deadnettle = assay: Test C postemergence herbicide test; assay type: in vivo, Lamium amplexicaule
Source text: as §3

[1] = 31 g ai/ha, scale 0 (no effect) to 100 (complete control)
[2] = 62 g ai/ha, scale 0 to 100 (0 no effect, 100 complete control)
[3] = 125 g ai/ha, scale 0 to 100 (0 no effect, 100 complete control)
[4] = 250 g ai/ha, scale 0 to 100 (0 no effect, 100 complete control)

## O=C1NCC(c2cccc(C(F)(F)F)c2)C1C(=O)Nc1ccccc1F (racemic) [Compound 3]
Rice, W.S. Jap; 250 g ai/ha
  Plant response rating, Rice, W.S. Jap: 0
Rice, W.S. Jap; 500 g ai/ha
  Plant response rating, Rice, W.S. Jap: 10
bulrush, hardstem; 250 g ai/ha
  Plant response rating, Bulrush, Hardstem: 0
bulrush, hardstem; 500 g ai/ha
  Plant response rating, Bulrush, Hardstem: 30
sedge, umbrella; 250 g ai/ha
  Plant response rating, Sedge, Umbrella: 0
sedge, umbrella; 500 g ai/ha
  Plant response rating, Sedge, Umbrella: 0

## O=C1NCC(c2ccc(C(F)(F)F)c(F)c2)C1C(=O)Nc1cccc(F)c1F (racemic) [Compound 247]
waterplantain; 125 g ai/ha
  Plant response rating, Waterplantain: 80
waterplantain; 250 g ai/ha
  Plant response rating, Waterplantain: 85
waterplantain; 500 g ai/ha
  Plant response rating, Waterplantain: 90
waterplantain; 1000 g ai/ha
  Plant response rating, Waterplantain: 90
waterplantain; 2000 g ai/ha
  Plant response rating, Waterplantain: 90
sedge, umbrella; 125 g ai/ha
  Plant response rating, Sedge, Umbrella: 0
sedge, umbrella; 250 g ai/ha
  Plant response rating, Sedge, Umbrella: 0
sedge, umbrella; 500 g ai/ha
  Plant response rating, Sedge, Umbrella: 0
sedge, umbrella; 1000 g ai/ha
  Plant response rating, Sedge, Umbrella: 0
sedge, umbrella; 2000 g ai/ha
  Plant response rating, Sedge, Umbrella: 0

## O=C1NCC(c2cccc(Br)c2)C1C(=O)Nc1ccccc1F (centres unmarked) [Compound 66]
cocklebur; 16 g ai/ha
  Plant response rating, Cocklebur: 0
cocklebur; 31 g ai/ha
  Plant response rating, Cocklebur: 0
cocklebur; 62 g ai/ha
  Plant response rating, Cocklebur: 0

## O=C1NCC(c2ccccc2)C1C(=O)Nc1ccccc1F (racemic) [Compound 81]
windgrass; [1]
  Plant response rating, Windgrass: 0
windgrass; [2]
  Plant response rating, Windgrass: 0
windgrass; [3]
  Plant response rating, Windgrass: 20
windgrass; [4]
  Plant response rating, Windgrass: 20
Barley (winter barley); [1]
  Plant response rating, Barley: 0
Barley (winter barley); [2]
  Plant response rating, Barley: 0
Barley (winter barley); [3]
  Plant response rating, Barley: 0
Barley (winter barley); [4]
  Plant response rating, Barley: 0
canarygrass; [1]
  Plant response rating, Canarygrass: 0
canarygrass; [2]
  Plant response rating, Canarygrass: 0
canarygrass; [3]
  Plant response rating, Canarygrass: 0
canarygrass; [4]
  Plant response rating, Canarygrass: 0

## O=C1NCC(c2cccc(C(F)(F)F)c2)C1C(=O)Nc1ccc(F)cc1F (racemic) [Compound 207]
Rice, W.S. Ind; 125 g ai/ha
  Plant response rating, Rice, W.S. Ind: 0
Rice, W.S. Ind; 250 g ai/ha
  Plant response rating, Rice, W.S. Ind: 0
Rice, W.S. Ind; 500 g ai/ha
  Plant response rating, Rice, W.S. Ind: 10

## O=C1NCC(c2ccc(F)cc2)C1C(=O)Nc1ccccc1F (racemic) [Compound 16]
cocklebur; 16 g ai/ha
  Plant response rating, Cocklebur: 0
cocklebur; 31 g ai/ha
  Plant response rating, Cocklebur: 0
cocklebur; 62 g ai/ha
  Plant response rating, Cocklebur: 0
cocklebur; 125 g ai/ha
  Plant response rating, Cocklebur: 0
cocklebur; 250 g ai/ha
  Plant response rating, Cocklebur: 0
pigweed, palmer; 16 g ai/ha
  Plant response rating, Pigweed, Palmer: 0
pigweed, palmer; 31 g ai/ha
  Plant response rating, Pigweed, Palmer: 0
pigweed, palmer; 62 g ai/ha
  Plant response rating, Pigweed, Palmer: 0
pigweed, palmer; 125 g ai/ha
  Plant response rating, Pigweed, Palmer: 0
pigweed, palmer; 250 g ai/ha
  Plant response rating, Pigweed, Palmer: 0

## O=C1NCC(c2cc(F)c(F)c(F)c2)C1C(=O)Nc1ccccc1F (racemic) [Compound 34]
windgrass; [1]
  Plant response rating, Windgrass: 0
windgrass; [2]
  Plant response rating, Windgrass: 0
windgrass; [3]
  Plant response rating, Windgrass: 0
windgrass; [4]
  Plant response rating, Windgrass: 5
Barley (winter barley); [1]
  Plant response rating, Barley: 0
Barley (winter barley); [2]
  Plant response rating, Barley: 0
Barley (winter barley); [3]
  Plant response rating, Barley: 0
Barley (winter barley); [4]
  Plant response rating, Barley: 0
canarygrass; [1]
  Plant response rating, Canarygrass: 0
canarygrass; [2]
  Plant response rating, Canarygrass: 0
canarygrass; [3]
  Plant response rating, Canarygrass: 0
canarygrass; [4]
  Plant response rating, Canarygrass: 0
deadnettle; [1]
  Plant response rating, Deadnettle: 0
deadnettle; [2]
  Plant response rating, Deadnettle: 0
deadnettle; [3]
  Plant response rating, Deadnettle: 0
deadnettle; [4]
  Plant response rating, Deadnettle: 0

## O=C1NCC(c2ccc(C(F)(F)F)cc2)C1C(=O)Nc1ccc(F)c(F)c1F (centres unmarked) [Compound 232]
pigweed, palmer; 31 g ai/ha
  Plant response rating, Pigweed, Palmer: 0
pigweed, palmer; 62 g ai/ha
  Plant response rating, Pigweed, Palmer: 0
pigweed, palmer; 125 g ai/ha
  Plant response rating, Pigweed, Palmer: 80
pigweed, palmer; 250 g ai/ha
  Plant response rating, Pigweed, Palmer: 65

## CN1CC(c2ccc(F)cc2)C(C(=O)Nc2cccc(F)c2F)C1=O (centres unmarked) [Compound 271]
Rice, W.S. Ind; 64 g ai/ha
  Plant response rating, Rice, W.S. Ind: 0
Rice, W.S. Ind; 125 g ai/ha
  Plant response rating, Rice, W.S. Ind: 15
Rice, W.S. Ind; 250 g ai/ha
  Plant response rating, Rice, W.S. Ind: 30
Rice, W.S. Ind; 500 g ai/ha
  Plant response rating, Rice, W.S. Ind: 60

From patent US10294202B2, “Pyrrolidinones as herbicides” (FMC Corporation, priority 2013, dated 2019)
